Structures can show the parent of a compound that is named as a salt. Where two headings read alike, the source gives them in different places.
Legend:
[1] = rat, in vivo
arterial pressure = assay: effect onto the arterial pressure of experimental animals; format: in vivo; conditions: on the contrary to Pivmecillinam
mice = assay: LD50 after administration per os in mice
[2] = comparative levels of 6-/N,N-1',6'-hexyleneformamidine/-penicillanic acid in blood serum, livers, lungs and kidneys of rats after per os administration (Table 2); format: in vivo
From the text: The results of the measurements, expressed in μg/ml are specified in Table 2.

in vivo = conditions: mouse, po
[3] = levels of free acid in serum and organs of rats after per os administration of the aminopropyl dihydrochloride; format: in vivo
[4] = LD50 after administration per os in mice; conditions: mouse, in vivo, po, LD50, mice, per os

Row | Structure (SMILES) | effect onto the arterial pressure (arterial pressure) | level of free acid in blood serum ([1]; 5 min) | level of free acid in blood serum ([1]; 10 min) | level of free acid in blood serum ([1]; 15 min) | level of free acid in blood serum ([1]; 30 min) | level of free acid in blood serum ([1]; 45 min) | level of free acid in blood serum ([1]; 60 min) | level of free acid in blood serum ([1]; 120 min) | level of free acid in blood serum ([1]; 180 min) | level of free acid in blood serum ([1]; 240 min) | level of free acid in blood serum ([1]; 300 min) | level of free acid in blood serum ([1]; 360 min) | other results
1 | CC1(C)S[C@@H]2[C@H](N=CN3CCCCCC3)C(=O)N2[C@H]1C(=O)O [6-/N,N-1', 6'-hexyleneformamidine/-penicillanic acid, reference compound] | – | – | – | – | – | – | – | – | – | – | – | – | level of free acid in blood serum ([1]; po, 5 min): 300 ng/mL; level of free acid in blood serum ([1]; po, 10 min): 900 ng/mL; level of free acid in blood serum ([1]; po, 0.25 h): 1700 ng/mL; level of free acid in blood serum ([1]; po, 0.5 h): 1800 ng/mL; level of free acid in blood serum ([1]; po, 0.75 h): 1900 ng/mL; level of free acid in blood serum ([1]; po, 1 h): 1900 ng/mL; level of free acid in blood serum ([1]; po, 2 h): 1600 ng/mL; level of free acid in blood serum ([1]; po, 3 h): 1300 ng/mL; level of free acid in blood serum ([1]; po, 4 h): 800 ng/mL; level of free acid in blood serum ([1]; po, 5 h): 600 ng/mL; level of free acid in blood serum ([1]; po, 6 h): 500 ng/mL
2 | CC(=O)COC(=O)[C@@H]1N2C(=O)[C@@H](N=CN3CCCCCC3)[C@H]2SC1(C)C [Hydrochloride of methylacetic ester of 6-/N,N1', 6'-hexylene] [hydrochloride of methylacetic ester of 6-/N, N-1', 6'-hexyleneformamidine/-penicillanic acid] | no effect | 12900 ng/mL | 14300 ng/mL | 16400 ng/mL | 16100 ng/mL | 18900 ng/mL | 14400 ng/mL | 9100 ng/mL | 2100 ng/mL | 1000 ng/mL | 800 ng/mL | 100 ng/mL | LD50 (mice; mice, per os, listed as hydrochloride of said ester): over 5 g/kg of the body weight
3 | CC(=O)COC(=O)[C@@H]1N2C(=O)[C@@H](N=CN3CCCCCC3)[C@H]2SC1(C)C [Methylacetic ester of 6-N,N-1', 6'-hexyleneformamidine/-peni] [methylacetic ester of 6-/N,N-1', 6'-hexyleneformamidine/-penicillanic acid] | no effect | 29300 ng/mL | 35000 ng/mL | 42700 ng/mL | 21100 ng/mL | 21200 ng/mL | 16900 ng/mL | 4900 ng/mL | 1600 ng/mL | 800 ng/mL | 600 ng/mL | 300 ng/mL | maximum level in kidneys relative to equivalent dose of Pivmecillinam ([2]; kidneys): three times; maximum level in the liver relative to equivalent dose of Pivmecillinam ([2]; liver): over two times higher; maximum levels in the lungs, ester and Pivmecillinam compared ([2]; lungs, equivalent doses): approximate ones; levels of free acid in the serum, comparison of preparations [1]: highest levels; maximum serum level relative to equivalent dose of Pivmecillinam [1]: over two times higher; maximum serum level relative to equivalent dose of corresponding free acid [1]: over twenty times higher; toxicity compared with Pivascillinam (mice; compared with Pivascillinam): toxicity lower than that of Pivascillinam
4 | CC(C)(C)C(=O)OCOC(=O)[C@@H]1N2C(=O)[C@@H](/N=C/N3CCCCCC3)[C@H]2SC1(C)C [Pivmecillinam, hydrochloride of pivaloyl-oxymethyl ester of 6-/N,N-1',6'-hecylaneformamidine/-penicillanicacid, reference compound] | – | 6300 ng/mL | 12700 ng/mL | 15500 ng/mL | 19200 ng/mL | 16300 ng/mL | 14700 ng/mL | 7900 ng/mL | 2100 ng/mL | 1800 ng/mL | 1500 ng/mL | 1100 ng/mL | LD50 (in vivo): 2600 mg/kg
5 | CC(=O)COC(=O)[C@@H]1N2C(=O)[C@@H](N=CN3CCC(CCCN)CC3)[C@H]2SC1(C)C [dihydrochloride of ester methylacetic of 6-{N,N-[3'-(γ-aminopropyl)-1',5'-pentileneformamidine]}-penicillanicacid] | – | – | – | – | – | – | – | – | – | – | – | – | levels of free acid in serum and organs relative to equivalent dose of corresponding free acid [3]: multiply higher
6 | CC(=O)COC(=O)[C@@H]1N2C(=O)[C@@H](N=CN3CCCCCC3)[C@H]2SC1(C)C [methylacetic ester of 6-/N,N-1', 6'-hexyleneformamidine/-penicillanic acid] | – | – | – | – | – | – | – | – | – | – | – | – | LD50 [4]: > 3000 mg/kg

Source: patent publication US4341779A, “Esters of amidinepenicillins” (priority 1978, dated 1982)
